{"source": "patent US7208572B2", "about": "“Leptin-related peptides” (Albany Medical College, priority 1998, dated 2007)", "key": {"[1]": {"conditions": "db/db mice, 1 mg/day ip", "procedure": "Peptide administration: LEP(116–130) and LEP(146–160) peptide amides were dissolved in sterile phosphate buffered saline (PBS, pH 7.2) and administered daily for 7 days between 1500 and 1600 h in a single 1 mg/0.2 ml ip injection. Control mice received 0.2 ml PBS (ip) only.\nFeeding and weighing schedule: On day one of the study, and on each day thereafter, 200 g of pelleted rodent diet (Prolab Rat, Mouse, Hamster 3000, St.Louis Mo.; 22% crude protein, 5% crude fat, 5% fiber, 6% ash, 2.5% additional minerals) was added to the hopper on each side of the cages between 0900 and 1100 h. Food remaining after 24 h was weighed to the nearest 0.1 g, and the average amount of food consumed per mouse was calculated (mean±SEM, n=6). The mice were allowed water ad libitum throughout the study, and were weighed once daily between 0900 and 1100 h.\nEach value represents the mean±SEM change in body weight or food intake for a group of six mice."}, "OB-Ra": {"target": "T1, OB-Ra (Mus musculus, UniProt P48356)", "T1 construct": "expressed in transfected cells; host or cells: COS-7", "T1 sequence (P48356 22-894 isoform P48356-2 limits assumed)": "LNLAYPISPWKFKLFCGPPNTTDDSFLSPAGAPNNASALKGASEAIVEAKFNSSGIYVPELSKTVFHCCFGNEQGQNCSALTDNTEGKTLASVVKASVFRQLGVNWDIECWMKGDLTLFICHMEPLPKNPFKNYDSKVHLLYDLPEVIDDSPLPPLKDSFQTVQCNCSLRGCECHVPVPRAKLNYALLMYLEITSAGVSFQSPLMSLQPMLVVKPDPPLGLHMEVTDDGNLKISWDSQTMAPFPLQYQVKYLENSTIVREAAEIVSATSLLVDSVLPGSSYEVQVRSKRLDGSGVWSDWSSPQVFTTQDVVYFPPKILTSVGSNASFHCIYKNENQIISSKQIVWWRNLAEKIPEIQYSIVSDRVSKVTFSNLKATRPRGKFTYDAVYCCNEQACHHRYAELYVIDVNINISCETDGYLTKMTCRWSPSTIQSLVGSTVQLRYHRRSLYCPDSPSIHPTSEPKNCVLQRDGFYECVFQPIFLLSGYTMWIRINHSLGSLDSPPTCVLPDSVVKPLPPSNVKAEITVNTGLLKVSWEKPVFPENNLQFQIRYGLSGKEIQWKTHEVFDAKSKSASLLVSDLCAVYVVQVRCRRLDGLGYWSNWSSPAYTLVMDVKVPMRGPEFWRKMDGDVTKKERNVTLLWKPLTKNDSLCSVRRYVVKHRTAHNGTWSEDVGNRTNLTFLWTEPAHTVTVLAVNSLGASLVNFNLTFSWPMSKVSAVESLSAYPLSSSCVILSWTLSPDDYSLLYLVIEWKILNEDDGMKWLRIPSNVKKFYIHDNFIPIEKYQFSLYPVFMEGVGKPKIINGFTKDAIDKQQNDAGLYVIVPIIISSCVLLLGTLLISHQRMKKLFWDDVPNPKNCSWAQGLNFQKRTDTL", "test": "Inhibition of AP-OB fusion protein binding by COS-7 cells transfected with OB receptor", "conditions": "1 nM human AP-OB, peptide up to 300 μM", "excerpt": "Initial experiments to determine the mechanism of action of LEP(116–130) utilized two highly sensitive in vitro bioassays routinely used to assess leptin binding and receptor activation (see e.g., White, et al., 1997. Proc. Natl. Acad. Sci. U.S.A. 94: 10657–10662). An alkaline phosphatase (“AP”)-leptin (“OB”) fusion protein (“AP-OB”) was used to measure inhibition of leptin binding in the absence or presence of recombinant mouse leptin (positive control) or peptide, by COS-7 cells transfected with the long (signaling) form of the mouse OB receptor (“OB-RL”). Signal transduction assays were done in GT1–7 cells cotransfected with AP reporter and OB-RL constructs. Secreted alkaline phosphatase (“SEAP”) activity in response to stimulation with mouse leptin or peptide was measured by chemiluminescence.\nTwo days after transfection, COS-7 cells were incubated with 1 nm human AP-OB fusion protein and bound AP activity was determined by chemiluminescence using the Great EscApe alkaline phosphatase detection kit as described by the manufacturer (CLON-TECH).\nCOS-7 cells were transfected with expression vector for OB-Ra. Two days after transfection, the cells were incubated with 1 nM human AB-OB fusion protein in the absence or presence of 30 nM mouse leptin, 300 μM LEP(116–130) or LEP(146–160). Bound AP activity was determined as has been described. See., e.g., Kamohara et al., 1997 Nature 389: 374–377."}, "[2]": {"test": "28-day ip study of body weight and food intake in female C57BL/6J ob/ob mice", "format": "in vivo, mouse", "conditions": "1 mg per day ip, 28 days", "excerpt": "In order to examine this possibility, six overlapping peptide amides, which corresponded to amino acid residues 106 to 167 of mouse leptin, were synthesized and their effects on body weight and food intake in female C57BL/6J ob/ob mice were subsequently assessed."}}}
{"sequence": "A L S R L Q G S L Q D I L Q Q (ALSRLQGSLQDILQQ) [LEP(146–160)]", "values": [{"measurement": "Weight after 7 days", "setting": "[1]", "value": "36.2 ± 1.4", "unit": "g"}, {"measurement": "Cumulative food intake", "setting": "[1]; 7 days", "value": "53.5 ± 0.3", "unit": "gm/mouse"}, {"measurement": "Effect on body weight gain and food intake", "setting": "[1]; 7 days", "value": "had no effect on either body weight"}, {"measurement": "Percent increase (body weight)", "setting": "[1]; 7 days", "value": "+18.3%"}, {"measurement": "Weight increase", "setting": "[1]; 7 days", "value": "+5.6 g"}, {"measurement": "Inhibition of AP-OB fusion protein binding", "setting": "OB-Ra", "value": "neither LEP(116–130) nor LEP(146–160), at 300 μM, were able to inhibit AP-OB binding"}, {"measurement": "Inhibition of AP-OB fusion protein binding", "setting": "OB-Ra; listed as LEP(145–160)", "value": "unable to inhibit AP-OB binding"}, {"measurement": "Weight gain and food intake vs vehicle", "setting": "[2]", "value": "continued to consume food and gain weight at a rate comparable to vehicle-injected control mice"}]}
